Patent US7138361B2, “Herbicidal heterocycles” (E. I. du Pont de Nemours and Company, priority 2000, dated 2006)

Assays:
Type in all cases: in vivo
[1] = system: lambsquarters (Chenopodium album); experiment: Test B preemergence
Summary of the method: (§1)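 Ratings on a 0 to 100 visual scale (100 complete control) compare treated plants with controls 13 to 15 days after application. Treatments were pre- or postemergence sprays of compound in non-phytotoxic solvent with surfactant.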

[2] = system: velvetleaf (Abutilon theophrasti); experiment: Test B preemergence
Summary of the method: as §1

[3] = system: barnyardgrass (Echinochloa crus-galli); experiment: Test B preemergence
Summary of the method: as §1

[4] = system: morning glory (Ipomoea hederacea); experiment: Test B preemergence
Summary of the method: as §1

[5] = system: giant foxtail (Setaria faberii); experiment: Test B preemergence
Summary of the method: as §1

corn (Zea mays) [6] = experiment: Test B preemergence
Summary of the method: as §1

[7] = system: Surinam grass (Brachiaria decumbens); experiment: Test B preemergence
Summary of the method: as §1

rice (Oryza saliva) [8] = experiment: Test B preemergence
Summary of the method: as §1

[9] = system: crabgrass (Digitaria sanguinalis); experiment: Test B preemergence
Summary of the method: as §1

[10] = system: cocklebur (Xanthium strumarium); experiment: Test B preemergence
Summary of the method: as §1

[11] = system: pigweed (Amaranthus retroflexus); experiment: Test B preemergence
Summary of the method: as §1

[12] = system: barnyardgrass (Echinochloa crus-galli); experiment: Test B flooded paddy test; details: Rate 1000 g/ha, scale of 0 to 100 where 0 is no effect and 100 is complete control, visually evaluated after 13 to 15 days
Summary of the method: (§2)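 Treatment: formulated chemical applied to flooded paddy plants at 2-leaf stage. Hold: greenhouse, 13–15 days. Scoring: visual comparison to controls, 0 (no effect) to 100 (complete control).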

[13] = system: smallflower flatsedge (Cyperus difformis); experiment: Test B flooded paddy test; details: Rate 1000 g/ha, scale of 0 to 100 where 0 is no effect and 100 is complete control, visually evaluated after 13 to 15 days
Summary of the method: as §2

[14] = system: duck salad (Heteranthera limosa); experiment: Test B flooded paddy test; details: Rate 1000 g/ha, scale of 0 to 100 where 0 is no effect and 100 is complete control, visually evaluated after 13 to 15 days
Summary of the method: as §2

rice (Oryza saliva) [15] = experiment: Test B flooded paddy test; details: Rate 1000 g/ha, scale of 0 to 100 where 0 is no effect and 100 is complete control, visually evaluated after 13 to 15 days
Summary of the method: as §2

[16] = system: barnyardgrass (Echinochloa crus-galli); experiment: Test C flooded paddy test; details: for Barnyardgrass plant response rating: Flooded Paddy, scale 0 to 100, 0 no effect, 100 complete control; for Plant response rating, Barnyardgrass: flooded paddy test, scale 0 to 100 (0 no effect, 100 complete control)
Summary of the method: (§3)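 Plants were grown to the 2-leaf stage under flooded paddy conditions and treated. They were then kept in a greenhouse for 12 to 14 days and visually rated against untreated controls on a 0–100 scale, where 0 is no effect and 100 is complete control.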

[17] = system: smallflower flatsedge (Cyperus difformis); experiment: Test C flooded paddy test; details: for Flatsedge plant response rating: Flooded Paddy, scale 0 to 100, 0 no effect, 100 complete control; for Plant response rating, Flatsedge: flooded paddy test, scale 0 to 100 (0 no effect, 100 complete control)
Summary of the method: as §3

[18] = system: duck salad (Heteranthera limosa); experiment: Test C flooded paddy test; details: for Ducksalad plant response rating: Flooded Paddy, scale 0 to 100, 0 no effect, 100 complete control; for Plant response rating, Ducksalad: flooded paddy test, scale 0 to 100 (0 no effect, 100 complete control)
Summary of the method: as §3

rice (Oryza saliva) [19] = experiment: Test C flooded paddy test; details: for Rice plant response rating: Flooded Paddy, scale 0 to 100, 0 no effect, 100 complete control; for Plant response rating, Rice: flooded paddy test, scale 0 to 100 (0 no effect, 100 complete control)
Summary of the method: as §3

[20] = system: blackgrass (Alopecurus myosuroides); experiment: Test B postemergence; details: 13 to 15 days
Summary of the method: as §1

[21] = system: lambsquarters (Chenopodium album); experiment: Test B postemergence; details: 13 to 15 days
Summary of the method: as §1

[22] = system: velvetleaf (Abutilon theophrasti); experiment: Test B postemergence; details: 13 to 15 days
Summary of the method: as §1

[23] = system: barnyardgrass (Echinochloa crus-galli); experiment: Test B postemergence; details: 13 to 15 days
Summary of the method: as §1

wild oat (Avena fatua) = experiment: Test B postemergence; details: 13 to 15 days
Summary of the method: as §1

[24] = system: wheat (Triticum aestivum); experiment: Test B postemergence; details: 13 to 15 days
Summary of the method: as §1

[25] = system: morning glory (Ipomoea hederacea); experiment: Test B postemergence; details: 13 to 15 days
Summary of the method: as §1

[26] = system: giant foxtail (Setaria faberii); experiment: Test B postemergence; details: 13 to 15 days
Summary of the method: as §1

corn (Zea mays) [27] = experiment: Test B postemergence; details: 13 to 15 days
Summary of the method: as §1

[28] = system: Surinam grass (Brachiaria decumbens); experiment: Test B postemergence; details: 13 to 15 days
Summary of the method: as §1

[29] = system: crabgrass (Digitaria sanguinalis); experiment: Test B postemergence; details: 13 to 15 days
Summary of the method: as §1

[30] = system: cocklebur (Xanthium strumarium); experiment: Test B postemergence; details: 13 to 15 days
Summary of the method: as §1

[31] = system: pigweed (Amaranthus retroflexus); experiment: Test B postemergence; details: 13 to 15 days
Summary of the method: as §1

[32] = Preemergence, Rate 500 g/ha, scale 0 to 100, 0 no effect, 100 complete control
[33] = preemergence, Rate 125 g/ha, scale of 0 to 100 where 0 is no effect and 100 is complete control, 13 to 15 days
[34] = Rate 125 g/ha, scale 0 (no effect) to 100 (complete control)
[35] = Rate 500 g/ha, scale 0 to 100, 0 is no effect, 100 is complete control

SMILES: CC(C)(C)c1ccn(C2CCN(c3cc(C(F)(F)F)cc(C(F)(F)F)c3)C2=O)n1 (centres unmarked) [Compound 54]
- Plant response rating, Lambsquarters [1, 32]: 0
- Plant response rating, Lambsquarters [1, 33]: 0
- Plant response rating, Velvetleaf [2, 32]: 0
- Plant response rating, Velvetleaf [2, 33]: 0
- Plant response rating, Barnyardgrass [3, 32]: 0
- Plant response rating, Barnyardgrass [3, 33]: 0
- Plant response rating, Morningglory [4, 32]: 0
- Plant response rating, Morningglory [4, 33]: 0
- Plant response rating, Foxtail, Giant [5, 32]: 0
- Plant response rating, Foxtail, Giant [5, 33]: 0
- Plant response rating, Corn (corn (Zea mays) [6]; [32]): 0
- Plant response rating, Corn (corn (Zea mays) [6]; [33]): 0
- Plant response rating, Surinam grass [7, 32]: 0
- Plant response rating, Surinam grass [7, 33]: 0
- Plant response rating, Rice (rice (Oryza saliva) [8]; [32]): 0
- Plant response rating, Rice (rice (Oryza saliva) [8]; [33]): 0
- Plant response rating, Crabgrass [9, 32]: 0
- Plant response rating, Crabgrass [9, 33]: 0
- Plant response rating, Cocklebur [10, 32]: 0
- Plant response rating, Cocklebur [10, 33]: 0
- Plant response rating, Pigweed [11, 32]: 0
- Plant response rating, Pigweed [11, 33]: 0
- Plant response rating, Barnyardgrass [12]: 80
- Plant response rating, Flatsedge [13]: 90
- Plant response rating, Ducksalad [14]: 30
- Plant response rating, Rice (rice (Oryza saliva) [15]): 0
- Barnyardgrass plant response rating ([16]; Rate 250 g/ha): 20
- Barnyardgrass plant response rating ([16]; Rate 500 g/ha): 20
- Plant response rating, Barnyardgrass ([16]; Rate 62 g/ha): 0
- Plant response rating, Barnyardgrass ([16]; Rate 125 g/ha): 0
- Flatsedge plant response rating ([17]; Rate 250 g/ha): 0
- Flatsedge plant response rating ([17]; Rate 500 g/ha): 80
- Plant response rating, Flatsedge ([17]; Rate 62 g/ha): 0
- Plant response rating, Flatsedge ([17]; Rate 125 g/ha): 0
- Ducksalad plant response rating ([18]; Rate 250 g/ha): 0
- Ducksalad plant response rating ([18]; Rate 500 g/ha): 0
- Plant response rating, Ducksalad ([18]; Rate 62 g/ha): 0
- Plant response rating, Ducksalad ([18]; Rate 125 g/ha): 0
- Rice plant response rating (rice (Oryza saliva) [19]; Rate 250 g/ha): 0
- Rice plant response rating (rice (Oryza saliva) [19]; Rate 500 g/ha): 0
- Plant response rating, Rice (rice (Oryza saliva) [19]; Rate 62 g/ha): 0
- Plant response rating, Rice (rice (Oryza saliva) [19]; Rate 125 g/ha): 0
- Plant response rating, Blackgrass [20, 34]: 0
- Plant response rating, Blackgrass [20, 35]: 0
- Plant response rating, Lambsquarters [21, 34]: 0
- Plant response rating, Lambsquarters [21, 35]: 30
- Plant response rating, Velvetleaf [22, 34]: 0
- Plant response rating, Velvetleaf [22, 35]: 0
- Plant response rating, Barnyardgrass [23, 34]: 0
- Plant response rating, Barnyardgrass [23, 35]: 0
- Plant response rating, Wild Oat (wild oat (Avena fatua); [34]): 0
- Plant response rating, Wild Oat (wild oat (Avena fatua); [35]): 0
- Plant response rating, Wheat [24, 34]: 0
- Plant response rating, Wheat [24, 35]: 0
- Plant response rating, Morningglory [25, 34]: 0
- Plant response rating, Morningglory [25, 35]: 20
- Plant response rating, Foxtail, Giant [26, 34]: 0
- Plant response rating, Foxtail, Giant [26, 35]: 0
- Plant response rating, Corn (corn (Zea mays) [27]; [34]): 0
- Plant response rating, Corn (corn (Zea mays) [27]; [35]): 0
- Plant response rating, Surinam grass [28, 34]: 0
- Plant response rating, Surinam grass [28, 35]: 0
- Plant response rating, Crabgrass [29, 34]: 0
- Plant response rating, Crabgrass [29, 35]: 0
- Plant response rating, Cocklebur [30, 34]: 0
- Plant response rating, Cocklebur [30, 35]: 20
- Plant response rating, Pigweed [31, 34]: 0
- Plant response rating, Pigweed [31, 35]: 0

SMILES: CC(C)(C)c1ccn(C2CCN(c3cc(Cl)cc(Cl)c3)C2=O)n1 (centres unmarked) [Compound 55]
- Plant response rating, Lambsquarters [1, 32]: 0
- Plant response rating, Lambsquarters [1, 33]: 0
- Plant response rating, Velvetleaf [2, 32]: 0
- Plant response rating, Velvetleaf [2, 33]: 0
- Plant response rating, Barnyardgrass [3, 32]: 0
- Plant response rating, Barnyardgrass [3, 33]: 0
- Plant response rating, Morningglory [4, 32]: 0
- Plant response rating, Morningglory [4, 33]: 0
- Plant response rating, Foxtail, Giant [5, 32]: 0
- Plant response rating, Foxtail, Giant [5, 33]: 0
- Plant response rating, Corn (corn (Zea mays) [6]; [32]): 0
- Plant response rating, Corn (corn (Zea mays) [6]; [33]): 0
- Plant response rating, Surinam grass [7, 32]: 0
- Plant response rating, Surinam grass [7, 33]: 0
- Plant response rating, Rice (rice (Oryza saliva) [8]; [32]): 0
- Plant response rating, Rice (rice (Oryza saliva) [8]; [33]): 0
- Plant response rating, Crabgrass [9, 32]: 0
- Plant response rating, Crabgrass [9, 33]: 0
- Plant response rating, Cocklebur [10, 33]: 0
- Plant response rating, Pigweed [11, 32]: 0
- Plant response rating, Barnyardgrass [12]: 100
- Plant response rating, Flatsedge [13]: 100
- Plant response rating, Ducksalad [14]: 80
- Plant response rating, Rice (rice (Oryza saliva) [15]): 0
- Barnyardgrass plant response rating ([16]; Rate 250 g/ha): 100
- Barnyardgrass plant response rating ([16]; Rate 500 g/ha): 100
- Plant response rating, Barnyardgrass ([16]; Rate 62 g/ha): 0
- Plant response rating, Barnyardgrass ([16]; Rate 125 g/ha): 50
- Flatsedge plant response rating ([17]; Rate 250 g/ha): 90
- Flatsedge plant response rating ([17]; Rate 500 g/ha): 100
- Plant response rating, Flatsedge ([17]; Rate 62 g/ha): 40
- Plant response rating, Flatsedge ([17]; Rate 125 g/ha): 90
- Ducksalad plant response rating ([18]; Rate 250 g/ha): 50
- Ducksalad plant response rating ([18]; Rate 500 g/ha): 50
- Plant response rating, Ducksalad ([18]; Rate 62 g/ha): 0
- Plant response rating, Ducksalad ([18]; Rate 125 g/ha): 40
- Rice plant response rating (rice (Oryza saliva) [19]; Rate 250 g/ha): 0
- Rice plant response rating (rice (Oryza saliva) [19]; Rate 500 g/ha): 0
- Plant response rating, Rice (rice (Oryza saliva) [19]; Rate 62 g/ha): 0
- Plant response rating, Rice (rice (Oryza saliva) [19]; Rate 125 g/ha): 0
- Plant response rating, Blackgrass [20, 34]: 0
- Plant response rating, Blackgrass [20, 35]: 0
- Plant response rating, Lambsquarters [21, 34]: 0
- Plant response rating, Lambsquarters [21, 35]: 0
- Plant response rating, Velvetleaf [22, 34]: 0
- Plant response rating, Velvetleaf [22, 35]: 0
- Plant response rating, Barnyardgrass [23, 34]: 0
- Plant response rating, Barnyardgrass [23, 35]: 0
- Plant response rating, Wild Oat (wild oat (Avena fatua); [34]): 0
- Plant response rating, Wild Oat (wild oat (Avena fatua); [35]): 0
- Plant response rating, Wheat [24, 34]: 0
- Plant response rating, Wheat [24, 35]: 0
- Plant response rating, Morningglory [25, 34]: 0
- Plant response rating, Morningglory [25, 35]: 30
- Plant response rating, Foxtail, Giant [26, 34]: 0
- Plant response rating, Foxtail, Giant [26, 35]: 0
- Plant response rating, Corn (corn (Zea mays) [27]; [34]): 0
- Plant response rating, Corn (corn (Zea mays) [27]; [35]): 0
- Plant response rating, Surinam grass [28, 34]: 0
- Plant response rating, Surinam grass [28, 35]: 0
- Plant response rating, Crabgrass [29, 34]: 0
- Plant response rating, Crabgrass [29, 35]: 0
- Plant response rating, Cocklebur [30, 34]: 10
- Plant response rating, Cocklebur [30, 35]: 10
- Plant response rating, Pigweed [31, 34]: 0
- Plant response rating, Pigweed [31, 35]: 0
